Four compounds from publication PMC8952208, “Synthesis, Antiplasmodial, and Antileukemia Activity of Dihydroartemisinin–HDAC Inhibitor Hybrids as Multitarget Drugs” (Pharmaceuticals, 2022) can be followed below.

Entries after “also recorded” stand apart in the source; their conditions may differ.

The test system of one assay is P. falciparum 3D7. In words: microbe, parasite or virus in culture. In kind it is cell-based. As to conditions: Plasmodium falciparum, 3D7, 72 h; asexual blood stages, three days incubation; n ≥ 2 in duplicate, mean ± SD; read-out: Pf3D7 IC50. Here is the method:
(§1) [38, 39] […] After three days of incubation at 37 °C, 5% CO2 and 5% O2 plates were frozen until analyzed by HRP2-ELISA. All compounds were evaluated in duplicate in at least two independent experiments. The IC50 was determined by nonlinear regression analysis of log concentration-response curves using the drc-package v3.0.1 [40] of R v4.0.5..

In a further assay the test system is P. falciparum Dd2. In words: microbe, parasite or virus in culture. In kind it is cell-based. As to conditions: Plasmodium falciparum, DD2, 72 h, read-out: PfDd2 IC50. Here is the method: as §1
For a further assay, the system named is Healthy Fibroblast 2. In words: Cytotoxicity against healthy fibroblast 2. In kind it is cell-based. As to conditions: Homo sapiens, healthy individually-derived fibroblasts. Here is the method:
(§2) Healthy individually-derived fibroblasts were cultured in DMEM supplemented with 10% FCS. Regular cell line authentication was performed short tandem repeat (STR) analysis (DNA fingerprinting), followed by comparison with the original DSMZ cell line database.
(§3) Cell viability assay was performed with leukemic cell lines after 72 h incubation with the respective inhibitors using ATP-based CellTiter-Glo luminescent assay (Promega, Madison, WI, USA).

The next assay has as its system A2780 cells. In words: MTT cell viability assay. In kind it is cell-based. As to conditions: Homo sapiens, 72 h, n ≥ 3 in triplicate, mean ± SD. Here is the method:
Reagents were obtained from PAN Biotech, Aidenbach Germany. The cell line was cultured at 37 °C under humidified air with 5% CO2 to a confluence of 80–90% before being used for further assays.
Intrinsic cytotoxicity of test compounds was determined by an MTT assay as previously described. A2780 cells were seeded in 96-well plates (Starlab GmbH, Hamburg, Germany) at a density of 20,000 cells/well and allowed to attach for 12 h. Cells were then treated with increasing concentrations of the test compounds. After 72 h, MTT (3-(4,5-dimethylthiazol-2-yl)-2,5-diphenyltetrazolium bromide) (BioChemica, Applichem GmbH, Darmstadt, Germany) solution (5 mg/mL in phosphate-buffered saline) was added to determine cell survival. The formazan dye was dissolved in DMSO (Sigma-Aldrich, Darmstadt, Germany) after 1 h. Absorbance was measured at 570 nm and 690 nm in a Multiskan microplate photometer (Thermo Fisher Scientific, Waltham, MA, USA). Concentration-response curves were generated using the four-parameter logistic equation (GraphPad Prism 9.0, San Diego, USA), and mean IC50 values were calculated in triplicates based on at least three different experiments.

Assay [1] has as its system acetylation of α-tubulin (marker of HDAC6 inhibition). In words: Immunoblotting, acetyl-α-tubulin in K562 cells. In kind it is cell-based, human. As to conditions: 0.4 µM, 24 h. Here is the method: (§4) K562 cells were treated with the indicated concentration of the compounds or vehicle control (DMSO) for 24 h. The recovered cell pellets were lysed with RIPA buffer (50 mM Tris-HCl pH 8.0, 1% Triton X-100, 0.5% sodium deoxycholate, 0.1% SDS, 150 mM sodium chloride, and 2 mM EDTA), supplemented with protease and phosphatase inhibitors (Thermofischer Scientific, Waltham, MA, USA). An equal amount of total protein (20 µg) was resolved by SDS-PAGE and followed by transfer on nitrocellulose membrane (Sigma-Aldrich). PageRuler prestained protein ladder, 10 kDa to 180 kDa (Thermofisher Scientific, Waltham, MA, USA) was used as a protein molecular weight marker.
A general note: In western blotting, separated proteins are transferred to a membrane and probed.

The test system of a further assay is Healthy Fibroblast 1. In words: Cytotoxicity against healthy fibroblast 1. As to conditions: Homo sapiens, healthy individually-derived fibroblasts. In kind it is cell-based. On the procedure:
as §2, §3

For another assay, the system named is MOLM13 cells. In words: CellTiter-Glo cell viability assay, MOLM13. In kind it is cell-based, human. The note with it: for IC50: Homo sapiens, MOLM-13, AML, 72 h, CellTiter-Glo, n = 3; for Selectivity index range healthy fibroblasts vs MOLM13: SI = (healthy fibroblast IC50)/(leukemia cell line IC50), range over two fibroblasts. On the procedure:
as §2, §3
(In general: ATP-based viability assays read luminescence as a measure of living cells.)

For assay [2], the system named is acetylation of histone H3 (marker of HDAC1 inhibition). In words: Immunoblotting, acetyl-histone H3 in K562 cells. In kind it is cell-based, human. The note with it: 0.4 µM, 24 h. Here is the method: as §4
The subject of a further assay is K562 cells. In words: Annexin V-PI staining. The note with it: 48 h, 0.4 µM or 0.8 µM. In kind it is cell-based, human. Here is the method:
To evaluate the induction of apoptosis upon respective inhibitor treatment, K562 cells were incubated (48 h) with inhibitors (0.4 µM or 0.8 µM) or with vehicle control (DMSO). The induction of apoptosis/necrosis was analyzed by measuring hypodiploid DNA content, mitochondrial potential, and exposure of phosphatidylserine after annexin/propidium iodide (PI) staining kit (BD, Franklin lakes, NJ, USA) using FACS.

The test system of assay [3] is artemisinin-resistant P. falciparum Dd2 R539T. In words: Ring-stage survival assay (0–3 h), Dd2 R539T. In kind it is cell-based. As to conditions: 700 nM, 6 h pulse; relative to DMSO control; compared with DHA. Here is the method: (§5) The effect of DHA–HDACi hybrids on artemisinin-resistant asexual stages of P. falciparum was assessed using the ring-stage survival assay as previously described with minor modifications. Briefly, mature schizonts of the artemisinin-sensitive strain Dd2 and the partial artemisinin-resistant strain Dd2 R539Twere isolated using magnetic column separation. The schizonts were then put with 10 mL complete medium and 200 µL 0^+ erythrocytes in a T-25 cell culture flask and incubated for exactly 3 h (37 °C, 5% O2, and 5% CO2). Next, parasites were synchronized with 5% (w/v) D-sorbitol solution yielding a culture containing only newly-invaded (0–3 h) ring-stage parasites.
(§6) Ring-stage parasites were added at 2% hematocrit and 0.5% parasitemia to a 48-well plate precoated with complete medium containing either DHA (Sigma-Aldrich) (positive control) or the tested DHA–HDACi hybrids at a final concentration of 700 nM or DMSO (negative control). […] Parasitemia was assessed by Giemsa-stained thin blood smears by two independent readers (10,000 erythrocytes per slide). If the results were discordant by more than 50%, a third independent read was conducted. The survival was calculated as the percentage of treated versus the untreated controls (DMSO). […] Means and standard deviations were calculated using Microsoft Excel. […]

In assay [4] the test system is artemisinin-sensitive P. falciparum Dd2. In words: Ring-stage survival assay (0–3 h), Dd2. In kind it is cell-based. The note with it: 700 nM, 6 h pulse; relative to DMSO control. On the procedure:
as §5, §6

The IC50 is the concentration that gives 50% inhibition. As for `C[C@H]1[C@H](SCc2ccc(C(=O)NO)cc2)O[C@@H]2O[C@@]3(C)CC[C@H]4[C@H](C)CC[C@@H]1[C@@]24OO3` [(β)-7c, N-Hydroxy-4-((((3R,5aS,6R,8aS,9R,10S,12S,12aR)-3,6,9-trimethyldecahydro-12H-3,12-epoxy[1,2]dioxepino[4,3-i]isochromen-10-yl)thio)methyl)benzamide], the IC50 turned out to be 3.6 ± 1.1 nM with P. falciparum 3D7; 3.2 ± 0.02 nM in the assay on P. falciparum Dd2; 17800 ± 6040 nM with Healthy Fibroblast 2; 880 ± 130 nM with A2780 cells; 14700 ± 3420 nM in the assay on Healthy Fibroblast 1; 380 ± 70 nM in the assay with MOLM13 cells. Moreover, the “acetylation of α-tubulin (immunoblot)” value in assay [1] is “induced acetylation of α-tubulin”. Besides, the “Selectivity index range healthy fibroblasts vs MOLM13” value in the assay on MOLM13 cells is 39-47. In addition, the “acetylation of histone H3 (immunoblot)” value in assay [2] is “did not induce acetylation of histone H3”. In the assay on K562 cells, the “apoptosis induction (annexin V/PI)” value is reported as “significantly induced apoptosis as compared to DHA”.
Turning to `C[C@@H]1CC[C@H]2[C@@H](C)C(OCc3ccc(/C=C/C(=O)NO)cc3)O[C@@H]3O[C@@]4(C)CC[C@@H]1[C@]32OO4` (stereo partly drawn) [Compound 7a, (E)-N-Hydroxy-3-(4-((((3R,5aS,6R,8aS,9R,12R,12aR)-3,6,9-trimethyldecahydro-12H-3,12-epoxy[1,2]dioxepino[4,3-i]isochromen-10-yl)oxy)methyl)phenyl)acrylamide], the IC50 in the assay with P. falciparum 3D7 came out at 2.6 ± 1.4 nM; in the assay with P. falciparum Dd2, 1.7 ± 0.92 nM; with Healthy Fibroblast 2, 6340 ± 790 nM; in the assay with A2780 cells, 1950 ± 520 nM; in the assay on Healthy Fibroblast 1, 13100 ± 100 nM; in the assay with MOLM13 cells it was 220 ± 40 nM. In addition, the “Selectivity index range healthy fibroblasts vs MOLM13” value with MOLM13 cells was 29-60. In addition, the “apoptosis induction (annexin V/PI)” value with K562 cells is recorded as “significantly induced apoptosis as compared to DHA”.
Take `C[C@H]1[C@@H](SCc2ccc(C(=O)NO)cc2)O[C@@H]2O[C@@]3(C)CC[C@H]4[C@H](C)CC[C@@H]1[C@@]24OO3` [(α)-7c, N-Hydroxy-4-((((3R,5aS,6R,8aS,9R,10R,12S,12aR)-3,6,9-trimethyldecahydro-12H-3,12-epoxy[1,2]dioxepino[4,3-i]isochromen-10-yl)thio)methyl)benzamide]: the IC50 in the assay with P. falciparum 3D7 worked out at 3.3 ± 1.4 nM; in the assay on P. falciparum Dd2 it was 3.4 ± 0.12 nM; in the assay on Healthy Fibroblast 2, 7410 ± 1400 nM; in the assay on A2780 cells, 1100 ± 250 nM; with Healthy Fibroblast 1 it was 12690 ± 120 nM; with MOLM13 cells, 330 ± 110 nM. Moreover, the “survival of artemisinin-resistant Dd2 R539T parasites in ring-stage survival assay” value in assay [3] was “significantly more active than DHA alone; also recorded: lowest survival”. Besides, the “Selectivity index range healthy fibroblasts vs MOLM13” value with MOLM13 cells was 23-39. In addition, the “necrosis induction (annexin V/PI)” value in the assay with K562 cells is “induced significant necrosis”.
On to `C[C@H]1[C@@H](O)O[C@@H]2O[C@@]3(C)CC[C@H]4[C@H](C)CC[C@@H]1[C@@]24OO3` [DHA, dihydroartemisinin], for which the IC50 in the assay on P. falciparum 3D7 was 3 ± 2.7 nM; with P. falciparum Dd2, 1.8 ± 0.02 nM; with Healthy Fibroblast 2, over 25000 nM; with A2780 cells, 970 ± 70 nM; in the assay on Healthy Fibroblast 1, over 25000 nM; with MOLM13 cells, 690 ± 170 nM. Further, the “acetylation of α-tubulin (immunoblot)” value in assay [1] is given as “affected the acetylation level neither of α-tubulin nor of histone H3”. Besides, in assay [4], the “survival of artemisinin-sensitive Dd2 parasites in ring-stage survival assay” value was at most 0.25%. Moreover, the “acetylation of histone H3 (immunoblot)” value in assay [2] was “affected the acetylation level neither of α-tubulin nor of histone H3”.
